Results on 46 compounds are retold here after publication PMC11855827, “High-Throughput Screening of Five Compound Libraries for Anthelmintic Activity and Toxicity Leads to the Discovery of Two Flavonoid Compounds” (International Journal of Molecular Sciences, 2025).

Where two headings read alike, the source gives them in different places.

This assay has as its system C. elegans. In words: microbe, parasite or virus in culture. The following applies: Caenorhabditis elegans.
Where [1] appears, read: 0 h, read-out: Percentage of motility inhibition 0 h, Table S2, C. elegans SS assay, 110 μM, 0 h, averages of 4 data points.
[2] abbreviates: 24 h, read-out: Percentage of motility inhibition 24 h, Table S2, C. elegans SS assay, 110 μM, 24 h, averages of 4 data points.
[3] abbreviates: 0 h, read-out: Percentage of motility inhibition 0 h.
The mark [4] stands for this setting: 24 h, read-out: Percentage of motility inhibition 24 h.

As usually defined, the inhibition is the relative decrease from the control value, in per cent. As for `Nc1cc(C(Cl)=C(Cl)Cl)c(S(N)(=O)=O)cc1S(N)(=O)=O` [Clorsulon], the inhibition at 110 µM was 12% under setting [1] and 5% under setting [2].
For `O=C(O)c1ccccc1C(=O)Nc1ccc(S(=O)(=O)Nc2nccs2)cc1` [Phthalylsulfathiazole], the inhibition at 110 µM runs as follows: under setting [1], 12%; under setting [2], 0%.
With `O=C(O)CCC(=O)O` [Succinic acid], the inhibition at 110 µM under setting [1] was 14% and the inhibition at 110 µM under setting [2] came to 15%.
The corresponding values for `CC(C)(C)NC(=O)N[C@H](C(=O)N1C[C@H]2[C@@H]([C@H]1C(=O)NC(CC1CCC1)C(=O)C(N)=O)C2(C)C)C(C)(C)C` (some centres unmarked) [Boceprevir] are 28% and 39%.
Consider `Cc1cn([C@H]2C[C@H](N=[N+]=[N-])[C@@H](CO)O2)c(=O)[nH]c1=O` [Zidovudine], for which the inhibition at 110 µM under setting [1] was 7% and the inhibition at 110 µM under setting [2] came to 4%.
Turning to `COC(=O)C1=CO[C@@H](O[C@@H]2O[C@H](CO)[C@@H](O)[C@H](O)[C@H]2O)[C@H]2[C@@H]1[C@H](O)C[C@]2(C)OC(C)=O` [Barlerin], the inhibition at 110 µM is 12% under setting [1] and 26% under setting [2].
`CC1=C2C(=O)O[C@@H](c3ccoc3)[C@]2(C)CCC1` [Fraxinellone]: the inhibition at 110 µM under setting [1] is 0% and the inhibition at 110 µM under setting [2] came to 6%.
Turning to `Cc1nc(C)c(C)nc1C` [Ligustrazine], the inhibition at 110 µM reads like this: under setting [1], 0%; under setting [2], 2%.
For the compound `CC(C1CC1)C(O)(Cn1cncn1)c1ccc(Cl)cc1` (centres unmarked) [Cyproconazole], the inhibition at 110 µM is 42% under setting [1] and 0% under setting [2].
Consider `C[C@@H]1O[C@@H](Oc2cc(O)c3c(=O)c(O[C@@H]4O[C@@H](C)[C@H](O)[C@@H](O)[C@H]4O)c(-c4ccc(O)cc4)oc3c2)[C@H](O)[C@H](O)[C@H]1O` [Kaempferitrin], for which the inhibition at 110 µM by setting is: under setting [1], 4%; under setting [2], 16%.
`O=C(NCNC(=O)NC1C(=O)NC(=O)N1CO)NC1C(=O)NC(=O)N1CO` (centres unmarked) [Imidazolidinyl urea]: the inhibition at 110 µM runs as follows: under setting [1], 28%; under setting [2], 10%.
With `O=c1cc(-c2ccccc2)oc2ccc(O)cc12` [6‐Hydroxyflavone], the inhibition at 110 µM stood at 14% under setting [1] and 2% under setting [2].
With `CC(C)CCC[C@@H](C)[C@H]1CC[C@H]2[C@@H]3CC=C4C[C@@H](O)CC[C@]4(C)[C@H]3CC[C@]12C` [Cholesterol], the inhibition at 110 µM runs as follows: under setting [1], 24%; under setting [2], 17%.
With `O=C(O)[C@@H]1CCCN1` [L-Proline], the inhibition at 110 µM is, setting by setting: under setting [1], 0%; under setting [2], 0%.
Turning to `CC1COc2c(N3CCN(C)CC3)c(F)cc3c(=O)c(C(=O)O)cn1c23` (centres unmarked) [Ofloxacin], the inhibition at 110 µM by setting is: under setting [1], 2%; under setting [2], 0%.
The corresponding values for `C[C@H]1[C@H](C)CC[C@]2(CO)CC[C@]3(C)C(=CC[C@@H]4[C@@]5(C)CC[C@H](O)C(C)(C)[C@@H]5CC[C@]43C)[C@H]12` [Uvaol] are 19% and 2%.
Consider `CN1C(=O)/C(=C2/C(=O)Nc3ccccc32)c2ccccc21` [Meisoindigo], for which the inhibition at 110 µM under setting [1] was 0% and the inhibition at 110 µM under setting [2] was found to be 0%.
`COc1c2occc2cc2ccc(=O)oc12` [Methoxsalen]: the inhibition at 110 µM runs as follows: under setting [1], 23%; under setting [2], 5%.
Consider `O=C(O)c1cn(C2CC2)c2cc(N3CCNCC3)c(F)cc2c1=O` [Ciprofloxacin], for which the inhibition at 110 µM runs as follows: under setting [1], 33%; under setting [2], 2%.
`O=C(/C=C/c1ccc(O[C@@H]2O[C@H](CO)[C@@H](O)[C@H](O)[C@H]2O)cc1)c1ccc(O)cc1O` [Isoliquiritin]: the inhibition at 110 µM is 24% under setting [1] and 2% under setting [2].
As for `O=C1C(O)=C([C@H]2CC[C@H](c3ccc(Cl)cc3)CC2)C(=O)c2ccccc21` [Atovaquone], the inhibition at 110 µM was determined as 18% under setting [1] and 2% under setting [2].
With `C=C1CC[C@@H]2[C@](C)(CO[C@@H]3O[C@H](CO)[C@@H](O)[C@H](O)[C@H]3O)CCC[C@@]2(C)[C@@H]1CCC1=CCOC1=O` [Neoandrographolide], the inhibition at 110 µM runs as follows: under setting [1], 15%; under setting [2], 40%.
With `Cc1nc(C(F)(F)F)c(C(=O)Nc2c(Br)cc(OC(F)(F)F)cc2Br)s1` [Thifluzamide], the inhibition at 110 µM reads like this: under setting [1], 69%; under setting [2], 29%.
Consider `COc1cc(O)c2c(c1)O[C@H](c1ccccc1)CC2=O` [Pinostrobin], for which the inhibition at 110 µM runs as follows: under setting [3], 1%; under setting [4], 7%.
Consider `OC[C@@H](O)[C@@H](O)[C@H](O)[C@H](O)CO` [D-Mannitol], for which the inhibition at 110 µM was 11% under setting [1] and 0% under setting [2].
With `Cc1cc(C)c(Nc2ccnc(Nc3ccc(C#N)cc3)n2)c(C)c1` [Dapivirine], the inhibition at 110 µM is, setting by setting: under setting [1], 44%; under setting [2], 4%.
The matching figures for `C[C@H](CO)C1=C(O)C(=O)c2c(ccc3c2CCCC3(C)C)C1=O` [Neocryptotanshinone]: 18% and 25%.
Turning to `COc1cc(-c2cc(=O)c3c(O)cc(O)cc3o2)ccc1O` [Chrysoeriol], the inhibition at 110 µM is, setting by setting: under setting [1], 18%; under setting [2], 1%.
The matching figures for `CC(C)=CCC/C(C)=C/Cc1c(O)c(CC=C(C)C)c2c(c1O)C(=O)C1=C[C@@H]3C[C@H]4C(C)(C)O[C@@](C/C=C(/C)C(=O)O)(C3=O)[C@@]14O2` [Gambogenic acid]: 1% and 8%.
As for `CC(C)=CCC[C@](C)(O[C@@H]1O[C@H](CO[C@@H]2O[C@H](CO)[C@@H](O)[C@H](O)[C@H]2O)[C@@H](O)[C@H](O)[C@H]1O)[C@H]1CC[C@]2(C)[C@@H]1[C@H](O)C[C@@H]1[C@@]3(C)CC[C@H](O[C@@H]4O[C@H](CO)[C@@H](O)[C@H](O)[C@H]4O)C(C)(C)[C@@H]3CC[C@]12C` [Gypenoside XVII], the inhibition at 110 µM runs as follows: under setting [1], 4%; under setting [2], 4%.
Turning to `C/C=C(\C)C(=O)O[C@H]1[C@H](O)[C@]2(COC(C)=O)[C@H](O)C[C@]3(C)C(=CC[C@@H]4[C@@]5(C)CC[C@H](O[C@@H]6O[C@H](C(=O)O)[C@@H](O[C@@H]7O[C@H](CO)[C@@H](O)[C@H](O)[C@H]7O)[C@H](O)[C@H]6O[C@@H]6O[C@H](CO)[C@@H](O)[C@H](O)[C@H]6O)[C@](C)(CO)[C@@H]5CC[C@]43C)[C@@H]2CC1(C)C` [Isoescin IA], the inhibition at 110 µM is, setting by setting: under setting [1], 8%; under setting [2], 1%.
With `CC(C)CC(C)c1sccc1NC(=O)c1cn(C)nc1C(F)(F)F` (centres unmarked) [Penthiopyrad], the inhibition at 110 µM is, setting by setting: under setting [1], 21%; under setting [2], 18%.
As to `C=CC1=C(C(=O)O)N2C(=O)[C@@H](NC(=O)/C(=N\OCC(=O)O)c3csc(N)n3)[C@H]2SC1` [Cefixime], the inhibition at 110 µM came out at 38% under setting [1] and 12% under setting [2].
`CC(=O)OC[C@]12[C@H](OC(C)=O)[C@H](OC(C)=O)[C@@H]3[C@@H](OC(C)=O)[C@@]14O[C@@]3(C)COC(=O)c1cccnc1CCC(C)C(=O)O[C@@H]([C@H](OC(=O)c1ccccc1)[C@@H]2OC(C)=O)[C@]4(C)O` (some centres unmarked) [Wilforine]: the inhibition at 110 µM runs as follows: under setting [1], 23%; under setting [2], 9%.
The corresponding values for `CC(C)=CCc1c(-c2ccc(O)cc2O)oc2c3c(cc(O)c2c1=O)OC(C)(C)C=C3` [Morusin] are 33% and 14%.
The matching figures for `CC(C)=CCc1c(O)c(CC=C(C)C)c2oc3c(O)cccc3c(=O)c2c1O` [8‐Deoxygartanin]: 14% and 0%.
As to `NC(=O)NC1NC(=O)NC1=O` (centres unmarked) [Allantoin], the inhibition at 110 µM under setting [1] is 0% and the inhibition at 110 µM under setting [2] stood at 13%.
Consider `COc1ccc(C[C@@H]2c3cc(Oc4cc(C[C@@H]5c6cc(O)c(OC)cc6CCN5C)ccc4O)c(OC)cc3CCN2C)cc1` [Isoliensinine], for which the inhibition at 110 µM is 3% under setting [3] and 17% under setting [4].
As for `O=c1cc(-c2ccc(O)cc2)oc2cc(O[C@@H]3O[C@H](CO)[C@@H](O)[C@H](O)[C@H]3O[C@@H]3OC[C@](O)(CO)[C@H]3O)cc(O)c12` [Apiin], the inhibition at 110 µM reads like this: under setting [1], 24%; under setting [2], 0%.
In the case of `CC1=C[C@H]2Cc3[nH]c(=O)ccc3[C@]3(C1)NCCC[C@H]23` [Huperzine B], the inhibition at 110 µM reads like this: under setting [3], 18%; under setting [4], 8%.
Take `C[C@@H]1O[C@@H](O[C@H]2[C@H](OC(=O)[C@]34CCC(C)(C)C[C@H]3C3=CC[C@@H]5[C@@]6(C)C[C@H](O)[C@H](O[C@@H]7O[C@H](CO)[C@@H](O)[C@H](O[C@@H]8O[C@H](CO)[C@@H](O)[C@H](O)[C@H]8O)[C@H]7O)C(CO)(CO)[C@@H]6CC[C@@]5(C)[C@]3(C)C[C@H]4O)OC[C@H](O)[C@@H]2O)[C@H](O)[C@H](O)[C@H]1O[C@@H]1OC[C@@H](O)[C@H](O[C@@H]2OC[C@](O)(CO)[C@H]2O)[C@H]1O` [Platycodin D2]: the inhibition at 110 µM under setting [1] was 0% and the inhibition at 110 µM under setting [2] came out at 2%.
Consider `C/C=C1\C(=O)C[C@H]2[C@@H]3CCC4=CC(=O)CC[C@]4(C)[C@H]3CC[C@]12C` [Guggulsterone], for which the inhibition at 110 µM runs as follows: under setting [3], 0%; under setting [4], 17%.
On to `O=c1c(O)c(-c2ccccc2)oc2cc(O)cc(O)c12` [Galangin], for which the inhibition at 110 µM by setting is: under setting [1], 10%; under setting [2], 8%.
In the case of `NCCCC[C@H](N)C(=O)O` [L-Lysine], the inhibition at 110 µM stood at 19% under setting [3] and 2% under setting [4].
Regarding `COc1nccnc1NS(=O)(=O)c1ccc(N)cc1` [Sulfalene], the inhibition at 110 µM was 2% under setting [1] and 15% under setting [2].
In the case of `CN/C(=N/CC1CCOC1)N[N+](=O)[O-]` (centres unmarked) [Dinotefuran], the inhibition at 110 µM by setting is: under setting [3], 7%; under setting [4], 0%.
